Measurements from patent US11878992B2, “Crystallization of steviol glycosides” (DSM IP Assets B.V., priority 2016, dated 2024).

What was measured:
[1] = test system: mildly hypertensive patients; settings: studies suggest; cited from earlier work
[2] = suitable for use in carbonated beverages and many other foods; cited from earlier work
Type II diabetics = settings: studies suggest; cited from earlier work
[3] = relative to sucrose; cited from earlier work
[4] = spontaneous crystallization from nanofiltration retentate; type: physicochemical; settings: aqueous nanofiltration retentate of fermentation broth
Method: The fermentation broth after laboratory scale fermentations was processed as follows: • centrifugation 30 min at 4000×g; • pH in the supernatant was adjusted to 3.5 and supernatant was heated 30 min at 70° C.; • the heated supernatant was clarified by centrifugation; • the clarified supernatant was ultrafiltrated through a membrane with 10 kDa cut-off; and • the permeate after ultrafiltration was nanofiltrated using a membrane with 150-300 Da cut-off.
Finally, 14.5 g of dried crystals were isolated out of 0.871 kg NF retentate.

[5] = solubility in washing liquid (95% ethanol); type: physicochemical; settings: in 95% ethanol (washing liquid)
Method: The suspension of 2.5 g crystals in 100 ml water was heated to 75° C. for 10 minutes to dissolve the crystals. The solution was cooled to 20° C. at 10° C./h and incubated at this temperature overnight. The crystals formed were filtered by vacuum and washed with two cake volumes of 95% ethanol
The choice of washing liquid was because of the low rebaudioside M solubility in it. The crystals were dried at 60° C. under vacuum overnight. […] The crystals contained >95% Reb-M as determined by LC-UV and the level of all KAG was below the limit of detection of LC-MS.

## C=C1C[C@@]23CC[C@H]4[C@@](C)(CCC[C@@]4(C)C(=O)O[C@@H]4O[C@H](CO)[C@@H](O)[C@H](O)[C@H]4O)[C@@H]2CC[C@]1(O[C@@H]1O[C@H](CO)[C@@H](O)[C@H](O)[C@H]1O[C@@H]1O[C@H](CO)[C@@H](O)[C@H](O)[C@H]1O)C3 [Stevioside]
[1]
  effect on blood pressure: can reduce blood pressure
[2]
  heat and pH stability: heat and pH stable
Type II diabetics
  effect on blood glucose levels: can reduce blood glucose levels

## C=C1C[C@@]23CC[C@H]4[C@@](C)(CCC[C@@]4(C)C(=O)O[C@@H]4O[C@H](CO)[C@@H](O)[C@H](O)[C@H]4O)[C@@H]2CC[C@]1(O[C@@H]1O[C@H](CO)[C@@H](O)[C@H](O[C@@H]2O[C@H](CO)[C@@H](O)[C@H](O)[C@H]2O)[C@H]1O[C@@H]1O[C@H](CO)[C@@H](O)[C@H](O)[C@H]1O)C3 [rebaudioside A]
[2]
  heat and pH stability: heat and pH stable

## C=C1C[C@@]23CC[C@H]4[C@@](C)(CCC[C@@]4(C)C(=O)O[C@@H]4O[C@H](CO)[C@@H](O)[C@H](O)[C@H]4O[C@@H]4O[C@H](CO)[C@@H](O)[C@H](O)[C@H]4O)[C@@H]2CC[C@]1(O[C@@H]1O[C@H](CO)[C@@H](O)[C@H](O[C@@H]2O[C@H](CO)[C@@H](O)[C@H](O)[C@H]2O)[C@H]1O[C@@H]1O[C@H](CO)[C@@H](O)[C@H](O)[C@H]1O)C3 [rebaudioside D]
[3]
  times sweeter than sucrose: about 200 times

## C=C1C[C@@]23CC[C@H]4[C@@](C)(CCC[C@@]4(C)C(=O)O[C@@H]4O[C@H](CO)[C@@H](O)[C@H](O[C@@H]5O[C@H](CO)[C@@H](O)[C@H](O)[C@H]5O)[C@H]4O[C@@H]4O[C@H](CO)[C@@H](O)[C@H](O)[C@H]4O)[C@@H]2CC[C@]1(O[C@@H]1O[C@H](CO)[C@@H](O)[C@H](O[C@@H]2O[C@H](CO)[C@@H](O)[C@H](O)[C@H]2O)[C@H]1O[C@@H]1O[C@H](CO)[C@@H](O)[C@H](O)[C@H]1O)C3 [rebaudioside M]
[4]
  concentration in the retentate of nanofiltration at which crystallization begins spontaneously: exceeded 30 g/I
[5]
  solubility: low
